{"source": "patent US8314140B2", "about": "“4-hydroxythiobenzamide derivatives of drugs” (Antibe Therapeutics Inc., priority 2006, dated 2012)", "key": {"gastric damage [1]": {"test_system": "gastric damage", "test": "Incidence of gastric damage at end of the leukocyte adherence experiment", "settings": "for Percent Incidence of Gastric Damage: intragastric 30 μmol/kg (naproxen and Compound XX 60 μmol/kg), end of experiment", "description": "(§1) Briefly, post-capillary mesenteric venules in anestheitized rats are examined under a light microscope."}, "COX-1 [2]": {"molecular_target": "COX-1 (Homo sapiens, UniProt P23219)", "sequence (P23219 24-599)": "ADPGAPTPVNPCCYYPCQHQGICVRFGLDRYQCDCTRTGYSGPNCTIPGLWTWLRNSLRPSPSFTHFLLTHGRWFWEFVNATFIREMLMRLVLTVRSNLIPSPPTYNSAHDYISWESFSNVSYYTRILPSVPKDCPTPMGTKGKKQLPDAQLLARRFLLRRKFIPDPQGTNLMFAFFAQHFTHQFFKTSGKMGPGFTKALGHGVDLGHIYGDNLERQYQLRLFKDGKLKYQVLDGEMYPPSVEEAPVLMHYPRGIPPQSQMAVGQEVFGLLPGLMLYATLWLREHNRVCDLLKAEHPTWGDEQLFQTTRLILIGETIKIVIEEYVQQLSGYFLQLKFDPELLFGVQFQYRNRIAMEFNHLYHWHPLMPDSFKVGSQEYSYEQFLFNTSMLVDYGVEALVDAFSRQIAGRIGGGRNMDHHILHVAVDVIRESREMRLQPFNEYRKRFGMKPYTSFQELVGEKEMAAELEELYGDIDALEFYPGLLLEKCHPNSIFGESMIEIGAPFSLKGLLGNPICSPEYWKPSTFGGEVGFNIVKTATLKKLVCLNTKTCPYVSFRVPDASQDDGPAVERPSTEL", "settings": "FIG. 16", "protocol": "Aliquots (0.5 mL) of blood from healthy human volunteers were added to glass tubes containing 10 uL of methanol alone, or one of the test drugs prepared such that the final concentration would be 0.1, 0.3, 1 or 3 μM. The tubes were placed in water bath (37° C.) with gentle shaking for 45 min, after which they were centrifuged (1,000×g) for 10 minutes. The concentration of thromboxane B2 in each sample was then determined using a specific ELISA, as in the studies shown in FIG. 11."}, "[3]": {"test_system": "leukocyte adherence to the vascular endothelium", "test": "Leukocyte adherence after NSAID or derivative, intravital microscopy (Example 21)", "format": "in vivo, rat", "settings": "for number of adherent leukocytes compared to the parent drug alone: comment on Table 2", "description": "as §1"}, "gastric damage [4]": {"test_system": "gastric damage", "test": "Gastric damage score 3 h after oral dosing", "format": "in vivo, rat", "settings": "oral 60 μmol/kg, 3 hours; FIG. 10", "description": "There were 5 rats in each group.\nEach group consisted of 5 rats."}, "gastric ulcers": {"test_system": "gastric ulcers", "test": "Healing of acetic acid-induced gastric ulcers", "format": "in vivo, rat", "settings": "oral twice-daily for 4 days; 30 μmol/kg (naproxen, Compound XX 60 μmol/kg); FIG. 17", "protocol": "Gastric ulcers were induced via serosal application of acetic acid, as described by Elliott et al., A nitric oxide-releasing nonsteroidal anti-inflammatory drug accelerates gastric ulcer healing in rats. […] After 4 days of such treatment, the rats were euthanized and the stomach was excised and photographed. The area (in mm^2) of the ulcer was determined planimetrically by an individual unaware of the treatments given to the rats."}, "COX-1 [5]": {"molecular_target": "T1, COX-1 (Rattus norvegicus, UniProt Q63921)", "T1 construct": "whole blood thromboxane synthesis, which occurs via COX-1; from tissue; host or cells: rat whole blood, ex vivo after oral dosing", "T1 sequence (Q63921 27-602)": "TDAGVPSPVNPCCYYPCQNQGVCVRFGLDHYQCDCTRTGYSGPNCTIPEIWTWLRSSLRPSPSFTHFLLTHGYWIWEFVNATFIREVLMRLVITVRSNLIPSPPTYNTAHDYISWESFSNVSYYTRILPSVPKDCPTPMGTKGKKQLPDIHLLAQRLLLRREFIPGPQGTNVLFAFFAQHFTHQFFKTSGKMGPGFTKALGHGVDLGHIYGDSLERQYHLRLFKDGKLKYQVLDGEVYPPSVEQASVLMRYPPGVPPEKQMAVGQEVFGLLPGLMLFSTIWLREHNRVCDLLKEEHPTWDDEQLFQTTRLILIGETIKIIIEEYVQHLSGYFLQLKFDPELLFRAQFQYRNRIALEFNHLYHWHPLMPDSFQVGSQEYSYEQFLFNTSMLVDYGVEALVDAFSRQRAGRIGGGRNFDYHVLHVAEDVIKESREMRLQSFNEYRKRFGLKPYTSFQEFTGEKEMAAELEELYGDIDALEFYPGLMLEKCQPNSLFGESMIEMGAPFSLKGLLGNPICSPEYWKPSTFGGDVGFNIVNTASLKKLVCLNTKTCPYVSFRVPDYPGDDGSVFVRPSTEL", "test": "Whole blood thromboxane B2 synthesis in treated rats", "format": "in vivo", "settings": "60 μmol/kg oral; versus vehicle; FIG. 11", "protocol": "Inhibition of COX-1 was also measured using the same rats. […] The samples were then centrifuged for 3 min at 9,000 g and the supernatant was frozen at −80° C. for subsequent measurement of thromboxane B2 concentrations using a specific ELISA.\nInhibition of COX-1 was also measured using the same rats, using the same method as described for FIG. 11."}, "[6]": {"test": "H2S generation in buffer and liver homogenate (Example 15)", "format": "in vitro ADME, rat", "settings": "1 mM compound, FIG. 6", "protocol": "(Compound XXVII) was tested for H2S generation under three different conditions. Concentrations of H2S that were generated within 1 hour from 1 mM concentrations of L-cysteine, 4-HBT (4-hydroxythiobenzamide) and 5-amino-2-(4-thiocarbamoyl-phenoxycarbonyloxy)-benzoic acid were measured. H2S release was tested under three conditions: (i) when the compound was in buffer, (ii) when the compound was in a liver homogenate, and (iii) when the compound was in the liver homogenate together with an inhibitor of cystathionine γ-lyase (PAG=DL-propargylglycine; 2 mM). Results are shown in FIG. 6. *p<0.05 compared to the release from the vehicle group. ^ψp>0.05 versus the corresponding ‘homogenate’ group. The enzymatic capacity for H2S production was determined using the same reactor as described previously (Khan et al. (1980) Microchem J 25: 388-395, incorporated herein by reference). Two ml of an assay reaction mixture was introduced in the reactor. The mixture contained 1 mM L-cysteine (or compound), 2 mM pyridoxal 5′-phosphate, 100 mM potassium phosphate buffer (pH=7.4). A constant stream of nitrogen was passed through the mixture via gas-inlet capillary. Reactions were initiated by transferring the tubes from ice bath to a 37° C. water bath. The stream of nitrogen carried the sulfide acid in the second reactor containing 4 ml of sulfide anti-oxidant buffer (SAOB) solution, consisting of 2M KOH, 1M salicylic acid and 0.22M ascorbic acid at pH 12.8[5]. After incubating at 37° C. for 90 minutes, 1 ml of 10% trichloroacetic acid solution was added to mixture to stop the reaction. The remainder H2S in the mixture was carried out via nitrogen stream by other 60 minutes of incubation at 37° C. The concentration of sulfide in SAOB solution was measured with a sulfide sensitive electrode (Model 9616 S^2−/Ag^+ electrode, Orion Research, Beverly, Mass., USA). For studies in which the test compounds were incubated in liver homogenate, 100-150 mg of isolated rat livers were homogenized in 1 ml of ice-cold T-PER protein extractor. The homogenates were added to the reaction mixture at a concentration of 10% (wt/vol). DL-propargylglycine 2 mM was incubated with liver homogenates for 5 min at 37° C. prior the enzyme reaction. Khan, S. U. Morris, G. F. and Hidiroglou, M. (1980) Rapid estimation of sulfide in rumen and blood with a sulfide-specific ion electrode. Microchem J. 25:388-395, incorporated herein by reference."}, "[7]": {"test_system": "carrageenan-induced paw edema", "test": "Carrageenan hindpaw edema model", "format": "in vivo, rat", "settings": "oral 30 min prior to carrageenan; diclofenac 1, 3 or 10 mg/kg; Compound XVII equimolar to diclofenac 3 mg/kg; FIG. 14", "protocol": "Male, Wistar rats weighing 175-200 g were given the test compounds orally 30 min prior to subplantar injection of 100 ul of 1% lambda carrageenan."}, "visceral pain perception": {"test_system": "visceral pain perception", "test": "Rat model of visceral pain perception (colorectal distension, AWR score)", "format": "in vivo", "protocol": "A rat model of visceral pain perception, a pre-clinical model of irritable bowel syndrome, was used in the following example. Rats (male, Wistar, 200-250 g, obtained from Charles River, Monza, Italy), were housed in plastic cages and maintained under controlled conditions with 12-hours light/dark cycle with lights on at 7.00 AM. Tap water and standard laboratory chow were freely available. Before experiments, rats were individually trained by spending 2-3 hours per day in a plexiglass cage for 2-3 days. It allowed them to adjust to a movement-restriction environment. Food was withheld for 12 hours before colorectal distension (CRD) recording were performed. Experiments were performed in awake rats and were conducted in a blind manner in that the observer was not aware of the identity of drug administered to each animal.\nIn the testing day, rats were sedated with ether inhalation and a 2 cm long latex balloon was inserted intrarectally 2 cm from the anal verge and fixed at the base of the tail. The balloon was connected via a double-barreled cannula to a pressure transducer to continuously monitoring the rectal pressure by a computer (PowerLab PC, A.D. Instruments, Milford, Mass., USA) and to a syringe for inflation/deflation of the balloon. The rats were then housed in a small cage (20×8×8 cm) on an elevated Plexiglas™ platform and allowed to wake up and adapt for 1 hour. After recovery from sedation, animals underwent the CRD procedure and behavioral responses were tested. The night before the experiments, the balloons were inflated and left overnight so the latex stretched and the balloons became compliant.\nCRD of 20 seconds, performed every 5 minutes, was applied in increment of 0.4 ml starting from 0.4 ml up to 1.6 ml water. To achieve an accurate measurement of the colonic parameters and perception, the distensions were repeated twice for each intensity and data for each animal were averaged for analysis. Each animal underwent a double set of CRD. Twenty minutes after the first sequence of CRD (0.4 mL-1.6 ml water), drugs were administered intraperitoneally (i.p.) and a second set of CRD was performed. Behavioral responses during the first and the second set of CRD were assessed and compared.\nBehavioral response to CRD was assessed by measuring the abdominal withdrawal reflex (AWR) using a semiquantitative score (1).\nA rat model of visceral pain perception as described above was used to compare pain perception scores for 5-amino-2-(4-thiocarbamoyl-phenoxycarbonyloxy)-benzoic acid (Compound XXVII) with or without glibenclamide, an inhibitor of ATP-sensitive K^+ (KATP) channels.\nExperiments were carried out as described in Example 13, except that groups of 5 rats each were treated with vehicle, trimebutine maleate (10 mg/kg), or with equimolar doses of trimebutine thiocarbamoylbenzoate (Compound III) or thiocarbamolybenzoate alone."}}, "note": "Entries after “also recorded” stand apart in the source; their conditions may differ.", "data": [{"smiles": "COc1ccc2c(c1)c(CC(=O)Oc1ccc(C(N)=S)cc1)c(C)n2C(=O)c1ccc(Cl)cc1", "note": "[Compound XIX, [1-(4-Chloro-benzoyl)-5-methoxy-2-methyl-1-H-indol-3-yl]-acetic acid 4-thiocarbamoyl-phenyl ester]", "values": [{"measurement": "Percent Incidence of Gastric Damage", "setting": "gastric damage [1]", "value": 0, "unit": "%"}, {"measurement": "thromboxane synthesis by human blood (COX-1 activity)", "setting": "COX-1 [2]; 0.1, 0.3, 1 or 3 μM, 45 min, 37° C.", "value": "concentration-dependent inhibition of COX-1 activity"}, {"measurement": "thromboxane synthesis by human blood (COX-1 activity) versus indomethacin", "setting": "COX-1 [2]; concentrations of 1 and 3 μM", "value": "significantly greater (*p<0.05) inhibition of COX-1 activity than that produced by indomethacin"}, {"measurement": "melting point", "value": "224 to 226", "unit": "°C"}, {"measurement": "Number of Adherent Leukocytes", "setting": "[3]; intragastric 30 μmol/kg (naproxen and Compound XX 60 μmol/kg), mean±SEM", "value": "3.0 ± 0.4", "unit": "per 100 μm vessel length"}]}, {"smiles": "CC(=O)Oc1ccccc1C(=O)Oc1ccc(C(N)=S)cc1", "note": "[Compound XVI, 2-Acetoxy-benzoic acid 4-thiocarbamoyl-pheny ester]", "values": [{"measurement": "percent incidence of gastric damage compared to the parent drug alone", "setting": "gastric damage [1]; comment on Table 2", "value": "significantly reduced the percent incidence of gastric damage"}, {"measurement": "Percent Incidence of Gastric Damage", "setting": "gastric damage [1]", "value": 0, "unit": "%"}, {"measurement": "melting point", "value": "154 to 156", "unit": "°C"}, {"measurement": "number of adherent leukocytes compared to the parent drug alone", "setting": "[3]", "value": "significantly reduced the number of adherent leukocytes"}]}, {"smiles": "Cc1ccc(Nc2c(F)cccc2Cl)c(CC(=O)Oc2ccc(C(N)=S)cc2)c1", "note": "[Compound XVIII, 4-thiocarbamoylphenyl 2-(2-(2-chloro-6-fluorophenylamino)-5-methylphenyl)acetate]", "values": [{"measurement": "percent incidence of gastric damage compared to the parent drug alone", "setting": "gastric damage [1]; comment on Table 2", "value": "no incidences of gastric damage"}, {"measurement": "Percent Incidence of Gastric Damage", "setting": "gastric damage [1]", "value": 0, "unit": "%"}, {"measurement": "melting point", "value": "120 to 122", "unit": "°C"}, {"measurement": "number of adherent leukocytes compared to the parent drug alone", "setting": "[3]", "value": "significantly reduced the number of adherent leukocytes"}]}, {"smiles": "COc1ccc2cc(C(C)C(=O)Oc3ccc(C(N)=S)cc3)ccc2c1", "note": "(centres unmarked) [Compound XX, 2-(6-Methoxy-naphthalen-2-yl)-propionic acid 4-thiocarbamyl-phenyl ester]", "values": [{"measurement": "gastric damage score", "setting": "gastric damage [4]", "value": "significantly less damage than naproxen itself; also recorded: not detectable"}, {"measurement": "percent incidence of gastric damage compared to the parent drug alone", "setting": "gastric damage [1]; rat, in vivo", "value": "significantly reduced the percent incidence of gastric damage"}, {"measurement": "gastric ulcer healing (ulcer surface area)", "setting": "gastric ulcers", "value": "significantly greater healing"}, {"measurement": "number of adherent leukocytes compared to the parent drug alone", "setting": "[3]", "value": "significantly reduced the number of adherent leukocytes"}, {"measurement": "thromboxane B2 synthesis in blood (COX-1 activity)", "setting": "COX-1 [5]", "value": "significantly (*p<0.05) inhibited COX-1 activity"}]}, {"smiles": "N[C@@H](CS)C(=O)O", "note": "[L-cysteine, reference compound]", "values": [{"measurement": "H2S generation in buffer", "setting": "[6]; buffer pH 7.4, 37° C.", "value": "did not release significant H2S"}, {"measurement": "H2S generation in liver homogenate with PAG", "setting": "[6]; liver homogenate plus DL-propargylglycine 2 mM", "value": "markedly inhibited by PAG"}]}, {"smiles": "O=C(O)Cc1ccccc1Nc1c(Cl)cccc1Cl", "note": "[diclofenac, reference compound]", "values": [{"measurement": "paw edema (paw volume increase)", "setting": "[7]", "value": "dose-dependently reduced paw edema"}]}, {"smiles": "COc1ccc(Cl)cc1C(=O)NCCc1ccc(S(=O)(=O)NC(=O)NC2CCCCC2)cc1", "note": "[glibenclamide, reference compound]", "values": [{"measurement": "pain perception score after glibenclamide pretreatment", "setting": "visceral pain perception; 0.8 mL colorectal distention, glibenclamide 10 mg/kg i.p. 30 min before, FIG. 3", "value": "did not affect the pain perception"}]}, {"smiles": "CCC(COC(=O)c1cc(OC)c(OC)c(OC)c1)(c1ccccc1)N(C)C.NC(=S)c1ccc(C(=O)O)cc1", "note": "(centres unmarked) [trimebutine thiocarbamoylbenzoate, 3,4,5-trimethoxybenzoic acid 2-(dimethylamino)-2-phenylbutyl ester 4-thiocarbamoyl benzoate]", "values": [{"measurement": "perception score (AWR Score)", "setting": "visceral pain perception; doses equimolar to trimebutine maleate 10 mg/kg, FIG. 7", "value": "more effective than either trimebutine maleate or thiocarbamoylbenzoate in reducing visceral pain"}]}]}
